Measured values taken from patent publication US20110166220A1, “DRONEDARONE FOR THE PREVENTION OF PERMANENT ATRIAL FIBRILLATION” (SANOFI-AVENTIS, priority 2008, published 2011).
Where a name gives a salt, the structure may show the parent alone.

Experiments:
[1] = Same trial: prevention of cardiovascular hospitalization or death in patients with permanent atrial fibrillation; type: in vivo
Protocol: The invention is illustrated with the data below. Efficacy of dronedarone and its pharmaceutically acceptable salts versus placebo for the prevention of permanent atrial fibrillation was provided via dronedarone hydrochloride during a prospective, multinational, double-blind, randomized, multi-center, placebo-controlled, parallel group trial. Study drug treatment units (placebo or dronedarone hydrochloride corresponding to 400 mg of base) were such that each patient took one tablet in the morning during or shortly after breakfast and one tablet in the evening during or shortly after dinner. The treatment duration depended on the time of recruitment of each patient in the trial and could be comprised from 12 months to 30 months. From the 4628 patients included in the trial, 2301 were part of the group treated with dronedarone hydrochloride. “Patients with permanent atrial fibrillation or flutter” means patients with a history of atrial fibrillation or atrial flutter, who were in atrial fibrillation or flutter at the time of recruitment but who had not a previous history of permanent atrial fibrillation or flutter and who stayed in permanent atrial fibrillation or flutter during all the trial. The results obtained during this trial were analyzed by the Kaplan Meier method for the figures and the relative risk (RR) was estimated using Cox's proportional effect regression model. The relative risk (RR) is the ratio of the rates of occurrence of a hospitalization or death in patients receiving dronedarone compared with patients receiving a placebo. The percentage reduction x of a given event (hospitalization, death, cardiovascular death and the like) is calculated in the following manner: x=1−relative risk. Of the 4628 patients included in the study, 2301 formed part of the group treated with dronedarone hydrochloride. […] 74 events were recorded in the placebo group against 29 in the group treated with dronedarone hydrochloride. The calculated relative risk is 0.67 with p=0.06, that is a 33% reduction in cardiovascular hospitalizations and deaths under dronedarone hydrochloride.

[2] = Prospective, multinational, double-blind, randomized, placebo-controlled, parallel group trial: prevention of permanent atrial fibrillation/flutter; type: in vivo; settings: of 2301 patients treated; 400 mg of base twice daily with meals, 12 to 30 months; placebo 294; Fischer's exact test p<0.001
From the text: The invention is illustrated with the data below. Efficacy of dronedarone and its pharmaceutically acceptable salts versus placebo for the prevention of permanent atrial fibrillation was provided via dronedarone hydrochloride during a prospective, multinational, double-blind, randomized, multi-center, placebo-controlled, parallel group trial.
Patients must have a history of atrial fibrillation or atrial flutter and/or may be in normal sinus rhythm or in atrial fibrillation or flutter at the time of recruitment. Recruitment of patients was conducted taking into account the following inclusion criteria:
1) One of the following risk factors had to be present: • age equal to or greater than 70 years, • hypertension (taking antihypertensives of at least two different classes), • diabetes, • history of cerebral stroke (transient ischemic event or completed cerebral stroke) or of systemic embolism, • left atrial diameter greater than or equal to 50 mm measured by echocardiography, • left ventricular ejection fraction less than 40%, measured by two-dimensional echography; […]

CCCCc1oc2ccc(NS(C)(=O)=O)cc2c1C(=O)c1ccc(OCCCN(CCCC)CCCC)cc1 [dronedarone hydrochloride, 2-n-butyl-3-[4-(3-di-n-butylaminopropoxy)benzoyl]-5-methylsulfonamido-benzofuran]
events (cardiovascular hospitalization or death) recorded in patients in permanent atrial fibrillation ([1]; 178 patients in permanent AF in treated group, placebo 74 events of 294 patients): 29 events | relative risk (RR) of cardiovascular hospitalization or death versus placebo ([1]; patients in permanent atrial fibrillation, Cox's proportional effect regression model, p=0.06): 0.67 | reduction in cardiovascular hospitalizations and deaths (x=1-relative risk) ([1]; patients in permanent atrial fibrillation, versus placebo, p=0.06): 33% | number of patients with permanent atrial fibrillation/flutter [2]: 178 patients
